{"source": "paper PMC10973839", "about": "“CHF6297: a novel potent and selective p38 MAPK inhibitor with robust anti-inflammatory activity and suitable for inhaled pulmonary administration as dry powder” (Frontiers in Pharmacology, 2024)", "key": {"[1]": {"target": "T1, human p38β (MAPK11) (Homo sapiens, UniProt Q15759)", "T1 construct": "GST; purchased Invitrogen", "T1 sequence (Q15759 whole entry)": "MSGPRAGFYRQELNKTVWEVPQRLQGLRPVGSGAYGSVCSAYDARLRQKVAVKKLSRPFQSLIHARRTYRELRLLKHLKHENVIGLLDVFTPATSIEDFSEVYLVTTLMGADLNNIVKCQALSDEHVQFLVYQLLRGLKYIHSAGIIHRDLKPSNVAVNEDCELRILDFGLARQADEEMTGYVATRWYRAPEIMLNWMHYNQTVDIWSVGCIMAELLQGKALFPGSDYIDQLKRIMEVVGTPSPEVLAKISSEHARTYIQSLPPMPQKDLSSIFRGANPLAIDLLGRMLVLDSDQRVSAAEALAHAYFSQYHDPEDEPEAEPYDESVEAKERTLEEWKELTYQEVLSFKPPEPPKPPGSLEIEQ", "test": "AlphaScreen kinase activity assay, human p38β", "type": "biochemical", "procedure": "The inhibitory activity of CHF6297 was determined using an AlphaScreen® (PerkinElmer)-based kinase activity assay as previously described ([Armani et al., 2022]). Kinase reactions consisted of 25 mM 4-(2-hydroxyethyl)-1-piperazine ethanesulfonic acid (HEPES), pH 7.5; 10 mM MgCl2; 100 μM Na3VO4; 2 mM DTT; 0.05 mg/mL Tween^TM 20; 100 pM solution of p38α, p38β, p38δ, or p38γ (Invitrogen); 1% DMSO; and 0.3 μg/mL ATF-2 fusion protein (New England Biolabs). Compounds were incubated under these conditions for 2 h, at 25°C, prior to the initiation of kinase activity by the addition of 250 μM ATP. […] Detection was performed by measuring luminescence following the addition of AlphaScreen donor beads (PerkinElmer, 6765300) and Protein A AlphaScreen acceptor beads (PerkinElmer, 6760137), both at a final concentration of 20 μg/mL. IC50 values were determined from concentration–response curves. […]\nCHF6297 was tested in biochemical enzymatic assays to determine its potency as an inhibitor of human p38α (MAPK14) and of the other human p38 isoforms, p38β (MAPK11), p38γ ([…]), and p38δ ([…]) ([Armani et al., 2022]). Activity in the primary screening assay was determined using AlphaScreen technology, in which a peptide (ATF2) is phosphorylated by the appropriate GST-tagged p38 protein isoform in the presence of CHF6297 at concentrations from semi-logarithmic dilutions. […]"}, "[2]": {"test_system": "i.v. LPS-induced TNF-α in blood", "test": "Intravenous LPS-induced TNF-α release in rat blood", "type": "in vivo, rats", "conditions": "0.3 mg/kg lactose-blended dry powder via inhalation, 2 h before i.v. LPS (0.3 mg/kg)"}, "[3]": {"target": "rat p38α (Rattus norvegicus, UniProt P70618)", "sequence (P70618 whole entry)": "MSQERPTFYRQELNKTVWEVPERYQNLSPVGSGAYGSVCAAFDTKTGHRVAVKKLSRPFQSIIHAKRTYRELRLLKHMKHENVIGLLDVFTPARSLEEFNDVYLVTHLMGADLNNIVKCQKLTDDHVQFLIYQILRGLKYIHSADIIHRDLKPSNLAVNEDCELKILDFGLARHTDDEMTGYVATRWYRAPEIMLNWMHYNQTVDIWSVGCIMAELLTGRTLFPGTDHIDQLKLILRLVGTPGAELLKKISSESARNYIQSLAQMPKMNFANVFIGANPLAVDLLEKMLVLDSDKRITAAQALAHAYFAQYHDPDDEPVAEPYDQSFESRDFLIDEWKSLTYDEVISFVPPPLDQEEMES", "test": "AlphaScreen kinase activity assay, rat p38α", "type": "biochemical"}, "[4]": {"test_system": "HBSMCs", "test": "CSE-evoked IL-8 release in human bronchial smooth muscle cells", "type": "cell-based", "procedure": "Cigarette smoke extract (CSE) was generated as reported previously ([Moretto et al., 2012]). Briefly, aqueous CSE was obtained from the combustion of four cigarettes (Marlboro Red, 12 mg tar, 0.9 mg nicotine each) bubbled through 50 mL of the culture medium and subsequently filtered through a 0.2-μm-pore filter (Millipore, Billerica, MA). To ensure reproducibility among different CSE batches, the absorbance [optical density (OD)] measured at 320 nm was used as a measure of the “strength” of the extract. Dilutions were made with culture media to obtain the desired absorbance. The CSE was freshly prepared on the day of the experiment and immediately used after preparation. Human bronchial smooth muscle cells (HBSMCs) were seeded in DMEM with 10% FBS (50 U/mL penicillin, 0.05 mg/mL streptomycin, and 2 mM L-glutamine) in 48-well plates at a density of 10,000 cells/well, grown to ∼80%–90% confluence and incubated overnight in serum-free DMEM before treatments. All the treatments were performed in serum-free DMEM. The cells were pretreated for 30 min with either the vehicle or CHF6297 or losmapimod before stimulation with freshly prepared CSE, TNF-α, (1 ng/mL), or the vehicle for 18 h at 37°C. Human IL-8 was measured in the collected supernatants by use of a paired-antibody quantitative ELISA kit (BioSource International, Camarillo, CA)."}, "[5]": {"conditions": "n = 3, read-out: IC50 (mean ± s.d.)"}}}
{"smiles": "C[C@H]1CCCCN1c1nnc2ccc(O[C@@H]3CC[C@H](NC(=O)Nc4cc(C(C)(C)C)nn4-c4cnn(CCN(C)C)c4)c4ccccc43)cn12", "note": "[CHF6297]", "values": [{"measurement": "IC50 fold-difference vs. human p38α", "setting": "[1]", "value": 1.4}, {"measurement": "IC50", "setting": "[1]; [5]", "value": "0.2 ± 0.017", "unit": "nM"}, {"measurement": "effect on TNF-α levels in blood", "setting": "[2]", "value": "no significant inhibition of TNF-α levels"}, {"measurement": "IC50 fold-difference vs. human p38α", "setting": "[3]", "value": 3.5}, {"measurement": "IC50", "setting": "[3]; [5]", "value": "0.5 ± 0.18", "unit": "nM"}, {"measurement": "maximum inhibition of IL-8", "setting": "[4]; CSE-evoked", "value": 100, "unit": "%"}, {"measurement": "IC50", "setting": "[4]; Homo sapiens, 18 h", "value": 0.79, "unit": "nM"}]}
